The source of these data is patent publication US10689354B2, “Aminoazole derivative” (Teijin Pharma Limited, priority 2015, dated 2020).

Where only a bound is given, the exact number is not on record here.

This assay has as its target T1, androgen receptor (AR-LBD) (Rattus norvegicus, UniProt P15207).
T1 construct: 5 μL of 2×AR-LBD/Fluoromone AL Red Complex contained in the kit; purchased Invitrogen
T1 sequence (P15207 651-882 limits assumed): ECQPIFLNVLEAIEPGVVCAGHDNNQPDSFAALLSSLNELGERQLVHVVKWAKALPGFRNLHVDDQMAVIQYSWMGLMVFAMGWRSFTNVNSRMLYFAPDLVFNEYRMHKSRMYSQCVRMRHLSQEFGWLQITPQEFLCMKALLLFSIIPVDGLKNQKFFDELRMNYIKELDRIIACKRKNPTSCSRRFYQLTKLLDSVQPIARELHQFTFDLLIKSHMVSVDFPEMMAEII
The experiment in a line: Evaluation of androgen receptor affinity (PolarScreen Androgen Receptor Competitor Assay Kit, Red; fluorescence polarization). To be noted: 22° C. for 5 hours, relative to binding rate of 1 μM DHT, read-out: AR affinity (pEC50) (converted). In outline:
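Duplicate wells of test compound were mixed with the kit's rat AR-LBD–Fluoromone AL Red tracer complex and left 5 hours at 22 °C before polarization was read. A 4-parameter fit gave pEC50, with binding rate referenced to 1 μM dihydrotestosterone.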
For the compound `Cc1sc(N(C[C@H]2CCC[C@@H](CO)C2)c2ccc(C#N)cc2)nc1C(=O)NS(C)(=O)=O` (racemic) [Compound 347, 2-[4-cyano-N-[[cis-3-(hydroxymethyl)cyclohexyl]methyl]anilino]-5-methyl-N-methylsulfonyl-thiazole-4-carboxamide], the EC50 is 1260 nM.
As for `COc1ccccc1N(Cc1ccccc1)c1nc(C(=O)NS(C)(=O)=O)c(C)s1` [Compound 47, 2-(N-benzyl-2-methoxy-anilino)-5-methyl-N-methylsulfonyl-thiazole-4-carboxamide], the figure is greater than 2000 nM; as for `Cc1sc(N(CCc2cccc(N(C)C)c2)c2ccc(C#N)cc2)nc1C(=O)NS(C)(=O)=O` [Compound 475, 2-[4-cyano-N-[2-[3-(dimethylamino)phenyl]ethyl]anilino]-5-methyl-N-methylsulfonyl-thiazole-4-carboxamide], 794 nM.
As for `Cc1sc(N(CCc2ccccn2)c2ccc(C#N)cc2)nc1C(=O)NS(C)(=O)=O` [Compound 130, 2-[4-cyano-N-[2-(2-pyridyl)ethyl]anilino]-5-methyl-N-methylsulfonyl-thiazole-4-carboxamide], the figure is greater than 2000 nM.
The result for `Cc1sc(N(Cc2ccccc2)CC(O)c2ccccc2)nc1C(=O)NS(C)(=O)=O` (stereo not shown) [Compound 462, 2-[benzyl-(2-hydroxy-2-phenyl-ethyl)amino]-5-methyl-N-methylsulfonyl-thiazole-4-carboxamide] reads 1260 nM; that for `Cc1sc(N(Cc2ccccc2)c2cccc3c2ccn3C)nc1C(=O)NS(C)(=O)=O` [Compound 337, 2-[benzyl-(1-methylindol-4-yl)amino]-5-methyl-N-methylsulfonyl-thiazole-4-carboxamide], greater than 2000 nM.
As for `Cc1sc(N(Cc2ccccn2)c2ccc(C#N)cc2)nc1C(=O)NS(C)(=O)=O` [Compound 42, 2-[4-cyano-N-(2-pyridylmethyl)anilino]-5-methyl-N-methylsulfonyl-thiazole-4-carboxamide], the EC50 is greater than 2000 nM.
As for `Cc1sc(N(Cc2ccccc2)c2cccc3cccnc23)nc1C(=O)NS(C)(=O)=O` [Compound 53, 2-[benzyl(8-quinolyl)amino]-5-methyl-N-methylsulfonyl-thiazole-4-carboxamide], the figure is greater than 2000 nM; as for `CNC(=O)COc1ccc(CN(c2ccc(C#N)cc2)c2nc(C(=O)NS(C)(=O)=O)c(C)s2)cc1` [Compound 574, 2-[4-cyano-N-[[4-[2-(methylamino)-2-oxo-ethoxy]phenyl]methyl]anilino]-5-methyl-N-methylsulfonyl-thiazole-4-carboxamide], greater than 2000 nM; as for `Cc1sc(N(CCc2c(Cl)cccc2Cl)Cc2ccccc2)nc1C(=O)NS(C)(=O)=O` [Example 316, 2-[benzyl-[2-(2,6-dichlorophenyl)ethyl]amino]-5-methyl-N-methylsulfonyl-thiazole-4-carboxamide], greater than 2000 nM.
The result for `Cc1sc(N(CC(=O)c2ccccc2)c2ccc(C#N)cc2)nc1C(=O)NS(C)(=O)=O` [Compound 434, 2-(4-cyano-N-phenacyl-anilino)-5-methyl-N-methylsulfonyl-thiazole-4-carboxamide] reads greater than 2000 nM; that for `Cc1ncc(CN(c2ccc(C#N)cc2)c2nc(C(=O)NS(C)(=O)=O)c(C)s2)s1` [Compound 435, 2-[4-cyano-N-[(2-methylthiazol-5-yl)methyl]anilino]-5-methyl-N-methylsulfonyl-thiazole-4-carboxamide], 631 nM.
Turning to `Cc1ncsc1CCN(c1ccc(C#N)cc1)c1nc(C(=O)NS(C)(=O)=O)c(C)s1` [Compound 136, 2-[4-cyano-N-[2-(4-methylthiazol-5-yl)ethyl]anilino]-5-methyl-N-methylsulfonyl-thiazole-4-carboxamide], the EC50 is greater than 2000 nM.
The result for `Cc1sc(N(CC(=O)N2CCCCC2)c2ccc(C#N)cc2)nc1C(=O)NS(C)(=O)=O` [Compound 72, 2-(4-cyano-N-[2-oxo-2-(1-piperidyl)ethyl]anilino)-5-methyl-N-methylsulfonyl-thiazole-4-carboxamide] reads greater than 2000 nM; that for `Cc1sc(N(Cc2ccccc2)c2ccccc2C#N)nc1C(=O)NS(C)(=O)=O` [Example 233, 2-(N-benzyl-2-cyano-anilino)-5-methyl-N-methylsulfonyl-thiazole-4-carboxamide], greater than 2000 nM.
As for `Cc1sc(N(Cc2ccccc2)c2ccc(C#N)cc2)nc1C(=O)NS(=O)(=O)CCN1C(=O)CCC1=O` [Compound 383, 2-(N-benzyl-4-cyano-anilino)-N-[2-(2,5-dioxopyrrolidin-1-yl)ethylsulfonyl]-5-methyl-thiazole-4-carboxamide], the figure is greater than 2000 nM.
As for `Cc1sc(N(C[C@H]2CC[C@@H](O)CC2)c2ccc(C#N)cc2)nc1C(=O)NS(C)(=O)=O` [Compound 353, 2-[4-cyano-N-[(cis-4-hydroxycyclohexyl)methyl]anilino]-5-methyl-N-methylsulfonyl-thiazole-4-carboxamide], the figure is greater than 2000 nM.
As for `CCC(c1ccccc1)N(c1ccc(C#N)cc1)c1nc(C(=O)NS(C)(=O)=O)c(C)s1` (stereo not shown) [Compound 84, 2-[4-cyano-N-(1-phenylpropyl)anilino]-5-methyl-N-methylsulfonyl-thiazole-4-carboxamide], the EC50 was greater than 2000 nM.
Regarding `Cc1sc(N(CC2CCCOC2)c2ccc(C#N)cc2)nc1C(=O)NS(C)(=O)=O` (stereo not shown) [Compound 120, 2-[4-cyano-N-(tetrahydropyran-3-ylmethyl)anilino]-5-methyl-N-methylsulfonyl-thiazole-4-carboxamide], the EC50 was greater than 2000 nM.
The result for `Cc1sc(N(Cc2ccccc2)c2ccccc2F)nc1C(=O)NS(C)(=O)=O` [Compound 30, 2-(N-benzyl-2-fluoro-anilino)-5-methyl-N-methylsulfonyl-thiazole-4-carboxamide] reads greater than 2000 nM.
The result for `Cc1sc(N(Cc2ccccc2)c2cccc(O)c2)nc1C(=O)NS(C)(=O)=O` [Example 205, 2-(N-benzyl-3-hydroxy-anilino)-5-methyl-N-methylsulfonyl-thiazole-4-carboxamide] reads greater than 2000 nM.
As for `Cc1sc(N(CCc2ccc3ccccc3c2)Cc2ccccc2)nc1C(=O)NS(C)(=O)=O` [Example 312, 2-[benzyl-[2-(2-naphthyl)ethyl]amino]-5-methyl-N-methylsulfonyl-thiazole-4-carboxamide], the figure is 631 nM; as for `Cc1sc(N(C[C@H]2CCC[C@@H](CO)C2)c2ccc(C(F)(F)F)cc2)nc1C(=O)NS(C)(=O)=O` (racemic) [Compound 348, 2-[N-[[cis-3-(hydroxymethyl)cyclohexyl]methyl]-4-(trifluoromethyl)anilino]-5-methyl-N-methylsulfonyl-thiazole-4-carboxamide], 1260 nM.
Consider `Cc1sc(N(Cc2cccnc2)c2ccc(C#N)cc2)nc1C(=O)NS(C)(=O)=O` [Compound 43, 2-[4-cyano-N-(3-pyridylmethyl)anilino]-5-methyl-N-methylsulfonyl-thiazole-4-carboxamide], for which the EC50 is greater than 2000 nM.
The result for `Cc1sc(N(CCn2cncn2)Cc2ccccc2)nc1C(=O)NS(C)(=O)=O` [Compound 680, 2-[benzyl-[2-(1,2,4-triazol-1-yl)ethyl]amino]-5-methyl-N-methylsulfonyl-thiazole-4-carboxamide] reads greater than 2000 nM.
